Experiment [1] concerns the target T1, BRD4 bromo domain 2 [BRD4(2)] (Homo sapiens, UniProt O60885).
T1 construct: N-terminally His6-tagged BRD4(2) (amino acids 357-445); made in house; host or cells: E. coli
As to the kind of experiment: BRD4(2)/acetylated peptide H4 binding assay (TR-FRET). The following applies: inhibition of interaction between His6-tagged BRD4(2) (amino acids 357-445) and acetylated histone H4 peptide. From the text: (§1) Protein-Protein Interaction Assay: BRD4/Acetylated Peptide H4 Binding Assay
2. Assay Description for BRD4 Bromo Domain 2 [BRD4(2)]
To assess the BRD4(2) binding strength of the substances described in this application, the ability thereof to inhibit the interaction between BRD4(2) and acetylated histone H4 in a dose-dependent manner was quantified.
(§2) For this purpose, a time-resolved fluorescence resonance energy transfer (TR-FRET) assay was used, which measures the binding between N-terminally His6-tagged BRD4(2) (amino acids 357-445) and a synthetic acetylated histone H4 (Ac-H4) peptide with sequence SGRGK(Ac)GGK(Ac)GLGK(Ac)GGAK(Ac)RHRKVLRDNGSGSK-biotin. The recombinant BRD4(2) protein produced in-house according to Filippakopoulos et al., Cell, 2012, 149:214-231 was expressed in E. coli and purified by means of (Ni-NTA) affinity and (Sephadex G-75) size exclusion chromatography. The Ac-H4 peptide can be purchased, for example, from Biosyntan (Berlin, Germany).
(§3) In the assay, typically 11 different concentrations of each substance (0.1 nM, 0.33 nM, 1.1 nM, 3.8 nM, 13 nM, 44 nM, 0.15 μM, 0.51 μM, 1.7 μM, 5.9 μM and 20 μM) were analysed as duplicates on the same microtitre plate. For this purpose, 100-fold concentrated solutions in DMSO were prepared by serial dilutions (1:3.4) of a 2 mM stock solution into a clear, 384-well microtitre plate (Greiner Bio-One, Frickenhausen, Germany). From this, 50 nl were transferred into a black test plate (Greiner Bio-One, Frickenhausen, Germany). The test was started by the addition of 2 μl of a 2.5-fold concentrated BRD4(2) solution (final concentration typically 100 nM in the 5 μl of reaction volume) in aqueous assay buffer [50 mM HEPES pH 7.5, 50 mM sodium chloride (NaCl); 50 mM potassium fluoride (KF); 0.25 mM CHAPS and 0.05% serum albumin (BSA)] to the substances in the test plate. This was followed by a 10-minute incubation step at 22° C. for the pre-equilibration of putative complexes between BRD4(2) and the substances.
(§4) The mixture was then incubated in the dark at 22° C. for one hour and then at 4° C. for at least 3 hours and for no longer than overnight. The formation of BRD4(2)/Ac-H4 complexes was determined by the measurement of the resonance energy transfer from the streptavidin-Eu chelate to the anti-6His-XL665 antibody present in the reaction. For this purpose, the fluorescence emission was measured at 620 nm and 665 nm after excitation at 330-350 nm in a TR-FRET measuring instrument, for example a Rubystar or Pherastar (both from BMG Lab Technologies, Offenburg, Germany) or a Viewlux (Perkin-Elmer). The ratio of the emissions at 665 nm and at 622 nm was taken as an indicator of the amount of BRD4(2)/Ac-H4 complexes formed.
The data (ratios) obtained were normalized, with 0% inhibition corresponding to the mean from the measurements for a set of controls (typically 32 data points) in which all the reagents were present. In these, in place of test substances, 50 nl of DMSO (100%) were used. Inhibition of 100% corresponded to the mean from the measurements for a set of controls (typically 32 data points) in which all the reagents except BRD4(2) were present. The IC50 was determined by regression analysis based on a 4-parameter equation (minimum, maximum, IC50, Hill; Y=max+(min−max)/(1+(X/IC50)Hill).
In general terms: TR-FRET usually uses a lanthanide donor and a delayed reading to cut background.

For experiment [2], the target named is T2, BRD4 bromo domain 1 [BRD4(1)] (Homo sapiens, UniProt O60885).
T2 construct: N-terminally His6-tagged BRD4(1) (amino acids 67-152); made in house; host or cells: E. coli
The experiment in a line: BRD4(1)/acetylated peptide H4 binding assay (TR-FRET). Conditions: inhibition of interaction between His6-tagged BRD4(1) (amino acids 67-152) and acetylated histone H4 peptide.
From the text: as §1
1. Assay Description for BRD4 Bromo Domain 1 [BRD4(1)]
To assess the BRD4(1) binding strength of the substances described in this application, the ability thereof to inhibit the interaction between BRD4(1) and acetylated histone H4 in a dose-dependent manner was quantified.
as §2, with “BRD4(1)” for “BRD4(2)”, “67-152)” for “357-445)”, “GRGK(Ac)GGK(Ac)GLGK(Ac)GGAK(Ac)RHGSGSK-biotin.” for “SGRGK(Ac)GGK(Ac)GLGK(Ac)GGAK(Ac)RHRKVLRDNGSGSK-biotin.”
as §3, with “concentrated BRD4(1)” for “concentrated BRD4(2)”, “typically 10” for “typically 100”, “chloride (NaCl),” for “chloride (NaCl); 50 mM potassium fluoride (KF);”, “between BRD4(1)” for “between BRD4(2)”
as §4, with “BRD4(1)/Ac-H4” for “BRD4(2)/Ac-H4”, “cryptate” for “chelate”
The data (ratios) obtained were normalized, with 0% inhibition corresponding to the mean from the measurements for a set of controls (typically 32 data points) in which all the reagents were present. In these, in place of test substances, 50 nl of DMSO (100%) were used. Inhibition of 100% corresponded to the mean from the measurements for a set of controls (typically 32 data points) in which all the reagents except BRD4(1) were present. The IC50 was determined by regression analysis based on a 4-parameter equation (minimum, maximum, IC50, Hill; Y=max+(min−max)/(1+(X/IC50)Hill).

For `C[C@@H]1C(=O)N(C)c2ccc(Nc3ccc(C(=O)NC4CCC(N5CCC(F)(F)CC5)CC4)cc3)nc2N1C1CCCCC1` (stereo partly drawn) [Example 71, 4-{[(3R)-4-Cyclohexyl-1,3-dimethyl-2-oxo-1,2,3,4-tetrahydropyrido[2,3-b]pyrazin-6-l]amino}-N-[4-(4,4-difluoropiperidin-1-yl)cyclohexyl]benzamide], the IC50 (in general, the point on the concentration scale where inhibition reaches its midpoint) turned out to be 445 nM in experiment [1] and 961 nM in experiment [2].
Taken in the same sequence, the figures for `COc1cc(C(=O)N2CC3(COC3)C2)ccc1Nc1ccc2c(n1)N(C1CCCCC1)[C@H](C)C(=O)N2C` [Example 73, (3R)-4-Cyclohexyl-6-{[2-methoxy-4-(2-oxa-6-azaspiro[3.3]hept-6-ylcarbonyl)phenyl]amino}-1,3-dimethyl-3,4-dihydropyrido[2,3-b]pyrazin-2(1H)-one] were 196 nM and 273 nM.
In the case of `COc1cc(C(=O)N2CC3(CCS3(=O)=O)C2)ccc1Nc1ccc2c(n1)N(C1CCCCC1)[C@H](C)C(=O)N2C` [Example 74, (3R)-4-Cyclohexyl-6-({4-[(1,1-dioxido-1-thia-6-azaspiro[3.3]hept-6-yl)carbonyl]-2-methoxyphenyl}amino)-1,3-dimethyl-3,4-dihydropyrido[2,3-b]pyrazin-2(1H)-one], the IC50 was 156 nM in experiment [1] and 300 nM in experiment [2].
In the same order, the values of `C[C@@H]1C(=O)N(C)c2ccc(Nc3ccc(C(=O)N4CCN(C(=O)OC(C)(C)C)CC4)cc3)nc2N1Cc1ccccc1` [Example 76, tert-Butyl 4-(4-{[(3R)-4-benzyl-1,3-dimethyl-2-oxo-1,2,3,4-tetrahydropyrido[2,3-b]pyrazin-6-yl]amino}benzoyl)piperazine-1-carboxylate] are 273 nM and 840 nM.
As to `COc1cc(C(=O)N2CC3(CCS3(=O)=O)C2)ccc1Nc1ccc2c(n1)N(C1CCCCCC1)[C@H](C)C(=O)N2C` [Example 84, (3R)-4-Cycloheptyl-6-({4-[(1,1-dioxido-1-thia-6-azaspiro[3.3]hept-6-yl)carbonyl]-2-methoxyphenyl}amino)-1,3-dimethyl-3,4-dihydropyrido[2,3-b]pyrazin-2(1H)-one], the half-inhibitory concentration (IC50) in experiment [1] came out at 165 nM; in experiment [2] it was 448 nM.
Turning to `C[C@@H]1C(=O)N(C)c2ccc(Nc3ccc(C(=O)NC4CN(C)C4)cc3)nc2N1C1CCCCCC1` [Example 85, 4-{[(3R)-4-Cycloheptyl-1,3-dimethyl-2-oxo-1,2,3,4-tetrahydropyrido[2,3-b]pyrazin-6-yl]amino}-N-(1-methylazetidin-3-yl)benzamide], the results for the IC50 in experiment [1] and in experiment [2] were 98 nM and 186 nM, respectively.
In the same order, the values of `CC(=O)N1CCC(NC(=O)c2ccc(Nc3ccc4c(n3)N(C3CCCCCC3)[C@H](C)C(=O)N4C)cc2)CC1` [Example 86, N-(1-Acetylpiperidin-4-yl)-4-{[(3R)-4-cycloheptyl-1,3-dimethyl-2-oxo-1,2,3,4-tetrahydropyrido[2,3-b]pyrazin-6-yl]amino}benzamide] are 100 nM and 180 nM.
In the same order, the values of `COc1cc(C(=O)NC2CN(C)C2)ccc1Nc1ccc2c(n1)N(C1CCCCCC1)[C@H](C)C(=O)N2C` [Example 87, 4-{[(3R)-4-Cycloheptyl-1,3-dimethyl-2-oxo-1,2,3,4-tetrahydropyrido[2,3-b]pyrazin-6-yl]amino}-3-methoxy-N-(1-methylazetidin-3-yl)benzamide] are 75 nM and 216 nM.
Taken in the same sequence, the figures for `COc1cc(C(=O)NC2CCN(C(C)=O)CC2)ccc1Nc1ccc2c(n1)N(C1CCCCCC1)[C@H](C)C(=O)N2C` [Example 88, N-(1-Acetylpiperidin-4-yl)-4-{[(3R)-4-cycloheptyl-1,3-dimethyl-2-oxo-1,2,3,4-tetrahydropyrido[2,3-b]pyrazin-6-yl]amino}-3-methoxybenzamide] were 146 nM and 339 nM.
Regarding `C[C@@H]1C(=O)N(C)c2ccc(Nc3ccc(C(=O)NCCN4CCN(C)CC4)cc3)nc2N1C1CCCCCC1` [Example 89, 4-{[(3R)-4-Cycloheptyl-1,3-dimethyl-2-oxo-1,2,3,4-tetrahydropyrido[2,3-b]pyrazin-6-yl]amino}-N-{2-(4-methylpiperazin-1-yl)ethyl]benzamide], the IC50 in experiment [1] is 93 nM; in experiment [2], 185 nM.
In the same order, the values of `C[C@@H]1C(=O)N(C)c2ccc(Nc3ccc(C(=O)NC4CCC(O)CC4)cc3)nc2N1C1CCCCCC1` (stereo partly drawn) [Example 90, 4-{[(3R)-4-Cycloheptyl-1,3-dimethyl-2-oxo-1,2,3,4-tetrahydropyrido[2,3-b]pyrazin-6-yl]amino}-N-(4-hydroxycyclohexyl)benz-amide] are 208 nM and 341 nM.
Taken in the same sequence, the figures for `CC(C)N1CCN(C(=O)c2ccc(Nc3ccc4c(n3)N(C3CCCCCC3)[C@H](C)C(=O)N4C)cc2)CC1` [Example 92, (3R)-4-Cylcoheptyl-1,3-dimethyl-6-[(4-{[4-(propan-2-yl)piperazin-1-yl]carbonyl}phenyl)amino]-3,4-dihydropyrido[2,3-b]pyrazin-2(1H)-one] were 209 nM and 325 nM.
